In US7786141B2 (Vertex Pharmaceuticals Incorporated, priority 2004, dated 2010):

Experiments:
M1 muscarinic receptor = biological target: T1, M1 muscarinic receptor (Homo sapiens, UniProt P11229); assay: Functional mobilization of intracellular calcium (FLIPR) in M1-CHO cells; assay type: cell-based; settings: M1 receptor, calcium mobilization; for Emax: read-out: M1 Efficacy
T1 construct: expressed in transfected cells; host or cells: CHO (M1-CHO)
T1 sequence (P11229 1-460): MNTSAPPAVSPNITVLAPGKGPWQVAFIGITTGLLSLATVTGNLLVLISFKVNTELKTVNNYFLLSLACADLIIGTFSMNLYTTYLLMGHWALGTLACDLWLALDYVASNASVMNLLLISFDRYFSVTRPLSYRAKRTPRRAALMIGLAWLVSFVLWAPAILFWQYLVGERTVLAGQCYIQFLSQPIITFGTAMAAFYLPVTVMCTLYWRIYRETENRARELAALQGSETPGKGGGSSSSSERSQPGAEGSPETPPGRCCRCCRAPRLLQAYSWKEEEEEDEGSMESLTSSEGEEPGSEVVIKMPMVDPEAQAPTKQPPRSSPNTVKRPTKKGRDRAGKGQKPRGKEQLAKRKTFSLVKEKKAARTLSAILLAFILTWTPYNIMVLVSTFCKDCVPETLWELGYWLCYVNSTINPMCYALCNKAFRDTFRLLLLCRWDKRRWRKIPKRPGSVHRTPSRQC
Summary of the method: (§1)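 Steps: seed M1- or M4-CHO cells 18-24 hrs ahead; load calcium dye with 1 mM probenecid; add test compound (0.5% DMSO final), either alone for agonism or 15 min before EC80 carbachol for inhibition; record FLIPR fluorescence for 60 sec.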

M4 muscarinic receptor = biological target: T2, M4 muscarinic receptor (Homo sapiens, UniProt P08173); assay: Functional mobilization of intracellular calcium (FLIPR) in M4-CHO cells; assay type: cell-based; settings: M4 receptor, calcium mobilization; for Emax: read-out: M4 Efficacy
T2 construct: expressed in transfected cells; host or cells: CHO (M4-CHO)
T2 sequence (P08173 1-479): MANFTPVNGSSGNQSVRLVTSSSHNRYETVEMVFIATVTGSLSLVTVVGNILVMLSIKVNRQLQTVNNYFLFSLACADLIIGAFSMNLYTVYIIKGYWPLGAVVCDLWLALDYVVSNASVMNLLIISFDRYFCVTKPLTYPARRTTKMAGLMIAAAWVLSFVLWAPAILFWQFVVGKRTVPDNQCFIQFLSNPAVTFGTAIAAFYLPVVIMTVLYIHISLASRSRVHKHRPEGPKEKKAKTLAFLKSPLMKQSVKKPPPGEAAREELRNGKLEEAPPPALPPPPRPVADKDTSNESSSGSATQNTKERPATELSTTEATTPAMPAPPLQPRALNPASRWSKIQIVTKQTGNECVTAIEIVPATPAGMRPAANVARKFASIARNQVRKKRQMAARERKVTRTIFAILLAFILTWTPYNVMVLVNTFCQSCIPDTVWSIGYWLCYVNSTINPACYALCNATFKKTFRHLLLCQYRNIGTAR
Summary of the method: as §1

| Compound | M1 Activity (M1 muscarinic receptor) | M1 Efficacy (M1 muscarinic receptor) | M4 Activity (M4 muscarinic receptor) | M4 Efficacy (M4 muscarinic receptor) | Emax (M1 muscarinic receptor) [%] | Emax (M4 muscarinic receptor) [%] |
| --- | --- | --- | --- | --- | --- | --- |
| CC(=O)NC1CC2(CCN(CC3CC4C=CC3C4)CC2)c2ccccc21 (stereo not drawn) [compound 185] | x (activity was measured to be greater than 1.0 μM) | xx (efficacy was calculated to be between 85% and 65%) | x (activity was measured to be greater than 1.0 μM) | xx (efficacy was calculated to be between 85% and 65%) |  |  |
| O=C(OCC(F)F)N1C2CCC1CC(N1CCC3(CC1)COc1ccc(F)cc13)C2 (stereo not drawn) [compound 186] | xxx (activity was measured to be less than 0.1 μM) |  | x (activity was measured to be greater than 1.0 μM) |  | > 85 | 65 to 85 |
| CC(=O)N1CC2(CCN(CC3CCCC3)CC2)c2cc(F)ccc21 [compound 187] | xx (activity was measured to be between 0.1 μM and 1.0 μM) |  | x (activity was measured to be greater than 1.0 μM) |  | 65 to 85 | 65 to 85 |
| CN(C)C(=O)N1CC2(CCN(C3CC4CCC(C3)N4C(=O)O[C@@H]3CCOC3)CC2)c2cc(F)ccc21 (stereo partly drawn) [compound 188] | x (activity was measured to be greater than 1.0 μM) |  | x (activity was measured to be greater than 1.0 μM) |  | < 65 | 65 to 85 |
| CCOC(=O)N1C2CCC1CC(N1CCC3(CC1)CN(C(=O)c1cc(C)nn1C(C)(C)C)c1ccc(F)cc13)C2 (stereo not drawn) [compound 189] | xxx (activity was measured to be less than 0.1 μM) |  | x (activity was measured to be greater than 1.0 μM) |  | 65 to 85 | 65 to 85 |
| CC(=O)N(C)[C@H]1CC2(CCN(C[C@H]3C[C@H]4CC[C@H]3C4)CC2)c2ccccc21 [compound 190] | x (activity was measured to be greater than 1.0 μM) |  | x (activity was measured to be greater than 1.0 μM) |  | > 85 | 65 to 85 |
| CCOC(=O)N1CCC(N2CCC3(CC2)C(=O)Nc2ccccc23)CC1 [compound 191] | xxx (activity was measured to be less than 0.1 μM) |  | x (activity was measured to be greater than 1.0 μM) |  | 65 to 85 | 65 to 85 |
| COC(=O)N1CC2(CCN(C3CC4CCC(C3)N4C(=O)O[C@@H]3CCOC3)CC2)c2cc(F)ccc21 (stereo partly drawn) [compound 192] | xxx (activity was measured to be less than 0.1 μM) |  | x (activity was measured to be greater than 1.0 μM) |  | 65 to 85 | 65 to 85 |
| CCOC(=O)N1CCC(N2CCC3(CC2)CN(C(C)=O)c2ccc(-c4ccc(OC)cc4)cc23)CC1 [compound 193] | x (activity was measured to be greater than 1.0 μM) |  | x (activity was measured to be greater than 1.0 μM) |  | < 65 | < 65 |
| CCOC(=O)N1CCC(N2CCC3(CC2)CN(C(=O)CC(C)(C)C)c2ccc(F)cc23)CC1 [compound 194] | xxx (activity was measured to be less than 0.1 μM) |  | x (activity was measured to be greater than 1.0 μM) |  | > 85 | 65 to 85 |
| COCCOC(=O)N1CC2(CCN(C3CC4CCC(C3)N4C(=O)OC3CCC3)CC2)c2cc(F)ccc21 (stereo not drawn) [compound 195] | xx (activity was measured to be between 0.1 μM and 1.0 μM) |  | x (activity was measured to be greater than 1.0 μM) |  | < 65 | < 65 |
| CC(=O)N[C@H]1CC2(CCN(C3CCCCC3)CC2)c2ccccc21 [compound 196] | xxx (activity was measured to be less than 0.1 μM) |  | x (activity was measured to be greater than 1.0 μM) |  | 65 to 85 | < 65 |
| CCOC(=O)N1C2CCC1CC(N1CCC3(CC1)CN(C(=O)Nc1ccc(F)cc1)c1ccc(F)cc13)C2 (stereo not drawn) [compound 197] | xx (activity was measured to be between 0.1 μM and 1.0 μM) |  | x (activity was measured to be greater than 1.0 μM) |  | < 65 | < 65 |
| O=C(O[C@@H]1CCOC1)N1CC2(CCN(C3CC4CCC(C3)N4C(=O)O[C@H]3CCOC3)CC2)c2cc(F)ccc21 (stereo partly drawn) [compound 198] | xx (activity was measured to be between 0.1 μM and 1.0 μM) |  | x (activity was measured to be greater than 1.0 μM) |  | 65 to 85 | < 65 |
| CCOC(=O)N1C2CCC1CC(N1CCC3(CC1)C(=O)Nc1ccccc13)C2 (stereo not drawn) [compound 199] | xx (activity was measured to be between 0.1 μM and 1.0 μM) |  | x (activity was measured to be greater than 1.0 μM) |  | 65 to 85 | < 65 |
| CC=CCOC(=O)N1C2CCC1CC(N1CCC3(CC1)CN(C(=O)N(C)C)c1ccc(F)cc13)C2 (stereo not drawn) [compound 200] | xx (activity was measured to be between 0.1 μM and 1.0 μM) |  | x (activity was measured to be greater than 1.0 μM) |  | 65 to 85 | < 65 |
| CC(=O)N1CC2(CCN(CC3CCN(C(=O)OC(C)C)CC3)CC2)c2cc(F)ccc21 [compound 202] | xx (activity was measured to be between 0.1 μM and 1.0 μM) |  | x (activity was measured to be greater than 1.0 μM) |  | 65 to 85 | < 65 |
| CN(C)C(=O)N1C2CCC1CC(N1CCC3(CC1)COc1ccc(F)cc13)C2 (stereo not drawn) [compound 203] | xxx (activity was measured to be less than 0.1 μM) |  | xx (activity was measured to be between 0.1 μM and 1.0 μM) |  | 65 to 85 | < 65 |
| Fc1ccc2c(c1)C1(CCN([C@H]3C[C@@H]4CC[C@@H]3C4)CC1)CO2 [compound 204] | xxx (activity was measured to be less than 0.1 μM) |  | x (activity was measured to be greater than 1.0 μM) |  | 65 to 85 | < 65 |
| CCOC(=O)N1C2CCC1CC(N1CCC3(CC1)CN(C(C)=O)c1ccccc13)C2 (stereo not drawn) [compound 205] | x (activity was measured to be greater than 1.0 μM) |  | x (activity was measured to be greater than 1.0 μM) |  | < 65 | < 65 |
| CC(=O)N[C@H]1CC2(CCN(C3CCOCC3)CC2)c2ccccc21 [compound 206] | xxx (activity was measured to be less than 0.1 μM) |  | x (activity was measured to be greater than 1.0 μM) |  | 65 to 85 | < 65 |
| Fc1ccc2c(c1)C1(CCN(C[C@H]3C[C@H]4CC[C@H]3C4)CC1)CO2 [compound 207] | xx (activity was measured to be between 0.1 μM and 1.0 μM) |  | x (activity was measured to be greater than 1.0 μM) |  | 65 to 85 | < 65 |
| Cc1ccc2c(c1)C1(CCN(C3CC4CCC3C4)CC1)CN2C(=O)c1cc(C)on1 (stereo not drawn) [compound 208] | xx (activity was measured to be between 0.1 μM and 1.0 μM) |  | x (activity was measured to be greater than 1.0 μM) |  | < 65 | < 65 |
| CN(C)C(=O)N1CC2(CCN(C3CCN(C(=O)O[C@@H]4CCOC4)CC3)CC2)c2cc(F)ccc21 [compound 209] | xx (activity was measured to be between 0.1 μM and 1.0 μM) |  | x (activity was measured to be greater than 1.0 μM) |  | > 85 | < 65 |
| CC(=O)N1CC2(CCN(C3CCCCCC3)CC2)c2cc(F)ccc21 [compound 210] | xx (activity was measured to be between 0.1 μM and 1.0 μM) |  | x (activity was measured to be greater than 1.0 μM) |  | 65 to 85 | < 65 |
| Cc1ccc2c(c1)C1(CCN(C3CC4CCC3C4)CC1)CN2C(=O)c1cc(C)n(C)n1 (stereo not drawn) [compound 211] | x (activity was measured to be greater than 1.0 μM) |  | x (activity was measured to be greater than 1.0 μM) |  | 65 to 85 | < 65 |
| O=C(O[C@H]1CCOC1)N1C2CCC1CC(N1CCC3(CC1)COc1ccc(F)cc13)C2 (stereo partly drawn) [compound 212] | x (activity was measured to be greater than 1.0 μM) |  | x (activity was measured to be greater than 1.0 μM) |  | < 65 | < 65 |
